This is an account of results in patent publication US9023847B2, “Azaheterocyclic compounds” (Merck Patent GmbH, priority 2009, dated 2015).

Some results are limits rather than exact numbers.

The target in the first test is T1, P70S6K (T412E mutant, Millipore) (Homo sapiens, UniProt P23443, T412E).
T1 construct: purchased Millipore
T1 sequence (P23443 whole entry T412E): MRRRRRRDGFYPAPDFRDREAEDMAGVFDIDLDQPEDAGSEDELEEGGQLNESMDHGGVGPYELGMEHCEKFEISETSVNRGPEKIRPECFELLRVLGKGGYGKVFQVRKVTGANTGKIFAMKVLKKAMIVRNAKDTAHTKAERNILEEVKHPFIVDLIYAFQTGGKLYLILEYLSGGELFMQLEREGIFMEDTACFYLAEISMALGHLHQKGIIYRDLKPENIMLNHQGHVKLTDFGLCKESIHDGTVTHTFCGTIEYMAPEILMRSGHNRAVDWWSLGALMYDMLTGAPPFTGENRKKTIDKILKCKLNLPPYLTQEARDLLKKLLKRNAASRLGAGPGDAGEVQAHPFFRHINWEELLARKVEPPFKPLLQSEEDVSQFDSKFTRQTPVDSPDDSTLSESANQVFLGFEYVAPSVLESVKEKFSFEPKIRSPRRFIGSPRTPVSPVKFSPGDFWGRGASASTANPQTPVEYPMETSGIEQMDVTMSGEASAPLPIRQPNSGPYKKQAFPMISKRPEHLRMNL
The test is described as follows: p70S6K enzyme assay. Format: biochemical. Conditions: Table 1; 3 nM P70S6K, 24 μM ATP, 90 min at 25° C.; read-out: p70S6K inhibition (IC50). The method in brief:
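T412E-mutant P70S6K (3 nM) with 24 μM ATP and 1 μM FITC-AHA-AKRRRLSSLRA-OH S6-derived peptide in 100 mM Hepes pH 7.5, 5 mM MgCl2, 1 mM DTT, 0.015% Brij; 90 min at 25° C, EDTA stop. Phosphorylated product and substrate peptide separated and quantified by microfluidic capillary electrophoresis (Caliper LabChip 3000).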
Take `O=C(NCc1cccc(Cl)c1)c1occc1Nc1ncnc2[nH]ccc12` [Example 141, 3-(7H-Pyrrolo[2,3-d]pyrimidin-4-ylamino)-furan-2-carboxylic acid 3-chloro-benzylamide]: the IC50 is < 100 nM.

Take `O=C(NCCc1cccc(F)c1)c1sccc1Nc1ncnc2[nH]ccc12` [Example 142, 3-(7H-Pyrrolo[2,3-d]pyrimidin-4-ylamino)-thiophene-2-carboxylic acid [2-(3-fluoro-phenyl)-ethyl]-amide]: the IC50 was < 100 nM.

Turning to `O=C(NCCc1ccccc1)c1sccc1Nc1ncnc2[nH]ccc12` [Example 143, 3-(7H-Pyrrolo[2,3-d]pyrimidin-4-ylamino)-thiophene-2-carboxylic acid phenethyl-amide], the IC50 was < 100 nM.

Take `O=C(NCCc1cccc(Cl)c1)c1sccc1Nc1ncnc2[nH]ccc12` [Example 144, 3-(7H-Pyrrolo[2,3-d]pyrimidin-4-ylamino)-thiophene-2-carboxylic acid [2-(3-chloro-phenyl)-ethyl]-amide]: the IC50 was < 100 nM.

In the case of `O=C(NCCc1ccc(F)cc1)c1sccc1Nc1ncnc2[nH]ccc12` [Example 145, 3-(7H-Pyrrolo[2,3-d]pyrimidin-4-ylamino)-thiophene-2-carboxylic acid [2-(4-fluoro-phenyl)-ethyl]-amide], the IC50 is < 100 nM.

For the compound `O=C(NCCc1ccc(Br)cc1)c1sccc1Nc1ncnc2[nH]ccc12` [Example 146, 3-(7H-Pyrrolo[2,3-d]pyrimidin-4-ylamino)-thiophene-2-carboxylic acid [2-(4-bromo-phenyl)-ethyl]-amide], the IC50 is < 100 nM.

`Cc1ccccc1CCNC(=O)c1sccc1Nc1ncnc2[nH]ccc12` [Example 147, 3-(7H-Pyrrolo[2,3-d]pyrimidin-4-ylamino)-thiophene-2-carboxylic acid [2-o-tolyl-ethyl)-amide]: the IC50 was < 100 nM.

On to `O=C(NCCNCc1ccccc1)c1sccc1Nc1ncnc2[nH]ccc12` [Example 148, 3-(7H-Pyrrolo[2,3-d]pyrimidin-4-ylamino)-thiophene-2-carboxylic acid [2-2-benzylamino-ethyl)-amide], for which the IC50 is < 100 nM.

On to `O=C(NCCc1ccc(F)cc1)c1sccc1Nc1ccnc2[nH]ccc12` [Example 150, 3-(1H-Pyrrolo[2,3-b]pyridin-4-ylamino)-thiophene-2-carboxylic acid [2-(4-fluoro-phenyl)-ethyl]-amide], for which the IC50 is < 100 nM.

In the case of `O=C(NC1CCCNC1)c1sccc1Nc1ncnc2[nH]ccc12` (stereo not drawn) [Example 151, 3-(7H-Pyrrolo[2,3-d]pyrimidin-4-ylamino)-thiophene-2-carboxylic acid piperidin-3-ylamide], the IC50 is < 100 nM.

`Cc1cc(Nc2ncnc3[nH]ccc23)c(C(=O)NCc2cccc(Cl)c2)s1` [Example 152, 5-Methyl-3-(7H-pyrrolo[2,3-d]pyrimidin-4-ylamino)-thiophene-2-carboxylic acid 3-chloro-benzylamide]: the IC50 is < 100 nM.

For `CNCCNC(=O)c1sccc1Nc1ncnc2[nH]ccc12` [Example 153, 3-(7H-Pyrrolo[2,3-d]pyrimidin-4-ylamino)-thiophene-2-carboxylic acid (2-methylamino-ethyl)-amide], the IC50 lay in the range of 100 to 1000 nM.

Turning to `CC(C)(C)OC(=O)N1CCCC(NC(=O)c2sccc2Nc2ncnc3[nH]ccc23)C1` (stereo not drawn) [Example 154, 3-{[3-(7H-Pyrrolo[2,3-d]pyrimidin-4-ylamino)-thiophene-2-carbonyl]-amino}-piperidine-1-carboxylic acid tert-butyl ester], the IC50 lay in the range of 100 to 1000 nM.

As for `CC(C)NC(=O)c1ccccc1Nc1ccnc2[nH]ccc12` [Example 155, N-Isopropyl-2-(1H-pyrrolo[2,3-b]pyridin-4-ylamino)-benzamide], the IC50 is 100 to 1000 nM.

As to `CC(C)(C)OC(=O)N1CCC(NC(=O)c2sccc2Nc2ccnc3[nH]ccc23)C1` (stereo not drawn) [Example 156, 3-{[3-(1H-Pyrrolo[2,3-b]pyridin-4-ylamino)-thiophene-2-carbonyl]-amino}-pyrrolidine-1-carboxylic acid tert-butyl ester], the IC50 is 1000 to 10000 nM.

As to `CC(C)(C)OC(=O)N(CCNC(=O)c1occc1Nc1ncnc2[nH]ccc12)Cc1ccccc1` [Example 157, Benzyl-(2-{[3-(7H-pyrrolo[2,3-d]pyrimidin-4-ylamino)-furan-2-carbonyl]-amino}-ethyl)-carbamic acid tert-butyl ester], the IC50 lay within 1000 to 10000 nM.

Still in this test, the particulars now being: class symbol; 3 nM P70S6K, 24 μM ATP; read-out: IC50 (p70S6K).
Consider `CC(NCCNC(=O)c1sccc1Nc1ccnc2[nH]ccc12)c1ccccc1` (stereo not drawn) [Example 131, 3-(1H-Pyrrolo[2,3-b]pyridin-4-ylamino)-thiophene-2-carboxylic acid [2-(1-phenyl-ethylamino)-ethyl]-amide], for which the IC50 was < 100 nM.

On to `NCC(NC(=O)c1sccc1Nc1ccnc2[nH]ccc12)c1ccc(C(F)(F)F)cc1` (stereo not drawn) [Example 132, 3-(1H-Pyrrolo[2,3-b]pyridin-4-ylamino)-thiophene-2-carboxylic acid [2-amino-1-(4-trifluoromethyl-phenyl)-ethyl]-amide], for which the IC50 is < 100 nM.

In the case of `NCC(NC(=O)c1ccsc1Nc1ccnc2[nH]ccc12)c1ccc(C(F)(F)F)cc1` (stereo not drawn) [Example 133, 2-(1H-Pyrrolo[2,3-b]pyridin-4-ylamino)-thiophene-3-carboxylic acid [2-amino-1-(4-trifluoromethyl-phenyl)-ethyl]-amide], the IC50 was < 100 nM.

In the case of `O=C(N[C@H](CN1C(=O)c2ccccc2C1=O)c1ccccc1)c1ccsc1Nc1ccnc2[nH]ccc12` [Example 134, (S)-[3-(1H-Pyrrolo[2,3-b]pyridin-4-ylamino)-thiophene-2-carboxylic acid[2-(1,3-dioxo-1,3-dihydro-isoindol-2-yl)-1-phenyl-ethyl]-amide]], the IC50 is < 100 nM.

On to `O=C(N[C@H](CN1C(=O)c2ccccc2C1=O)c1ccccc1)c1sccc1Nc1ccnc2[nH]ccc12` [Example 135, (S)-2-(1H-Pyrrolo[2,3-b]pyridin-4-ylamino)-thiophene-3-carboxylic acid[2-(1,3-dioxo-1,3-dihydro-isoindol-2-yl)-1-phenyl-ethyl]-amide], for which the IC50 was < 100 nM.

As to `Cc1ccc(CNCCNC(=O)c2sccc2Nc2ccnc3[nH]ccc23)cc1` [Example 136, 3-(1H-Pyrrolo[2,3-b]pyridin-4-ylamino)-thiophene-2-carboxylic acid [2-(4-methyl-benzylamino)-ethyl]-amide], the IC50 is < 100 nM.

Take `COc1ccc(CNCCNC(=O)c2sccc2Nc2ccnc3[nH]ccc23)cc1Cl` [Example 137, 3-(1H-Pyrrolo[2,3-b]pyridin-4-ylamino)-thiophene-2-carboxylic acid [2-(3-chloro-4-methoxy-benzylamino)-ethyl]-amide]: the IC50 was < 100 nM.

As for `COC(=O)CNC(=O)c1sccc1Nc1ccnc2[nH]ccc12` [Example 138, {[3-(1H-Pyrrolo[2,3-b]pyridin-4-ylamino)-thiophene-2-carbonyl]-amino}-acetic acid methyl ester], the IC50 is 100 to 1000 nM.

As to `N#CC[C@@H](NC(=O)c1ccsc1Nc1ccnc2[nH]ccc12)c1ccccc1` [Example 139, 2-(1H-Pyrrolo[2,3-b]pyridin-4-ylamino)-thiophene-3-carboxylic acid ((R)-2-cyano-1-phenyl-ethyl)-amide], the IC50 was < 100 nM.

With `NC[C@@H](NC(=O)c1ccsc1Nc1ccnc2[nH]ccc12)c1ccccc1` [Example 140, 2-(1H-Pyrrolo[2,3-b]pyridin-4-ylamino)-thiophene-3-carboxylic acid ((S)-2-amino-1-phenyl-ethyl)-amide], the IC50 is < 100 nM.

Turning to `COc1ccccc1C(CN(C)C)NC(=O)c1sccc1Nc1ccnc2[nH]ccc12` (stereo not drawn) [Example 158, 3-(1H-Pyrrolo[2,3-b]pyridin-4-ylamino)-thiophene-2-carboxylic acid [2-dimethylamino-1-(2-methoxy-phenyl)-ethyl]-amide], the IC50 lay in the range of 100 to 1000 nM.

For the compound `CN(C)CC(NC(=O)c1sccc1Nc1ccnc2[nH]ccc12)c1cccc(Cl)c1` (stereo not drawn) [Example 159, 3-(1H-Pyrrolo[2,3-b]pyridin-4-ylamino)-thiophene-2-carboxylic acid [1-(3-chloro-phenyl)-2-dimethylamino-ethyl]-amide], the IC50 is < 100 nM.

In the case of `COc1cccc(C(CN(C)C)NC(=O)c2sccc2Nc2ccnc3[nH]ccc23)c1` (stereo not drawn) [Example 160, 3-(1H-Pyrrolo[2,3-b]pyridin-4-ylamino)-thiophene-2-carboxylic acid [2-dimethylamino-1-(3-methoxy-phenyl)-ethyl]-amide], the IC50 was < 100 nM.

On to `O=C(Nc1cccc(CNC(=O)c2sccc2Nc2ccnc3[nH]ccc23)c1)c1ccnc(N2CCCC2)c1` [Example 161, 2-Pyrrolidin-1-yl-N-[3-({[3-(1H-pyrrolo[2,3-b]pyridin-4-ylamino)-thiophene-2-carbonyl]-amino}-methyl)-phenyl]-isonicotinamide], for which the IC50 was < 100 nM.

For the compound `CN(C)c1cc(C(=O)Nc2cccc(CNC(=O)c3sccc3Nc3ccnc4[nH]ccc34)c2)ccn1` [Example 162, 2-Dimethylamino-N-[3-({[3-(1H-pyrrolo[2,3-b]pyridin-4-ylamino)-thiophene-2-carbonyl]-amino}-methyl)-phenyl]-isonicotinamide], the IC50 is < 100 nM.

For `CN1CCN(c2cc(C(=O)Nc3cccc(CNC(=O)c4sccc4Nc4ccnc5[nH]ccc45)c3)ccn2)CC1` [Example 163, 2-(4-Methyl-piperazin-1-yl)-N-[3-({[3-(1H-pyrrolo[2,3-b]pyridin-4-ylamino)-thiophene-2-carbonyl]-amino}-methyl)-phenyl]-isonicotinamide], the IC50 is < 100 nM.

Regarding `O=C(Nc1cccc(CNC(=O)c2sccc2Nc2ccnc3[nH]ccc23)c1)c1ccnc(N2CCOCC2)c1` [Example 164, 2-Morpholin-4-yl-N-[3-({[3-(1H-pyrrolo[2,3-b]pyridin-4-ylamino)-thiophene-2-carbonyl]-amino}-methyl)-phenyl]-isonicotinamide], the IC50 was < 100 nM.
